Measured values taken from patent US12048768B2, “Gastro-resistant controlled release oral dosage forms” (Minerva Neurosciences, Inc., priority 2017, dated 2024).

How the values were obtained:
[1] = Phase 2b study of MIN-101 in patients with schizophrenia (negative symptoms, cognitive function, CDSS); format: in vivo, human
Description: The oral dosage forms used in this Phase 2b study were the 32 mg MR tablet described in Example 1 below and an essentially identical 64 mg MR tablet.
Thus, in an aspect, administration of a gastro-resistant CR oral dosage form of the present disclosure to a patient with a diagnosis of schizophrenia is intended to improve cognitive function in the patient.
A secondary outcome of the phase 2b study of MIN-101 discussed above was patients' performance on the Calgary Depression Scale for Schizophrenia (CDSS) ADDINGTON D, ADDINGTON J, MATICKA-TYNDALE E. ASSESSING DEPRESSION IN S CHIZOPHRENIA: THE CALGARY DEPRESSION SCALE. BRITISH JOURNAL OF PSYCHIATRY SUPPLEMENT 1993; (22):39-44. The CDSS has little overlap with positive and negative symptoms and has become the recommended scale to assess the severity of depression in patients with schizophrenia. In the phase 2b study, the severity of symptoms as measured by the CDSS was reduced following treatment with 32 or 64 mg of MIN-101 compared to placebo. […] Thus, since the effects of MIN-101 on negative symptoms and depression symptoms in schizophrenia patients were largely independent of each other, MIN-101 has the potential to alleviate one or more depression symptoms in patients who are not schizophrenic.

[2] = human, in vivo
[3] = as disclosed in U.S. Pat. No. 9,458,130; cited from earlier work

With `Cl.O.O.O=C(CN1CCC(CN2Cc3ccccc3C2=O)CC1)c1ccc(F)cc1` [MIN-101, 1H-Isoindol-1-one, 2-[[1-[2-(4-Fluorophenyl)-2-oxoethyl]-4-piperidinyl]methyl]-2,3-dihydro-, hydrochloride, hydrate (1:1:2)] the Cognitive function ([1]; phase 2b study) was “improvement in cognitive function”, the “Negative symptoms in patients with schizophrenia” value ([1]; phase 2b, 32 mg and 64 mg MR tablets) was “rapid, statistically significant and clinically meaningful reductions in negative symptoms” and the “Severity of depression symptoms as measured by the CDSS” value ([1]; phase 2b, 32 or 64 mg compared to placebo) was “reduced”. For the same molecule, the “Plasma levels of BFB-520 in CYP2D6 poor metabolizers” value [2] was “high plasma levels of BFB-520” and the “QT prolongation in patients” value [3] was “has been observed”.
